According to patent US10988523B2, “Modified lipidated Relaxin B chain peptides and their therapeutic use” (Sanofi, priority 2018, dated 2021):
Values after ≈ are worked out from the molar mass of the structure shown. Where two headings read alike, the source gives them in different places. Marks after values point to notes of the source that are not given here. *1 amine or outer side, *2 acyl side, *3 side chain or, on linkers, in order; H or OH if unused. Where a SMILES comes first, the peptide text is derived from it. Side-chain parts run from the residue outwards. [ ]: non-standard residue; d: D form. The star is where a group is joined. PEG12 = NCCOCCOCCOCCOCCOCCOCCOCCOCCOCCOCCOCCOCCC(=O)O; γGlu = O=C(O)[C@H](CCC(=O)[*:2])N[*:1]; Stearoyl = CCCCCCCCCCCCCCCCCC(=O)*; Palmitoyl = CCCCCCCCCCCCCCCC(=O)*; αMeK = C[C@](N)(CCCCN)C(=O)O; Nle = CCCC[C@H](N)C(=O)O; AEEA = NCCOCCOCC(=O)O; Aib = CC(C)(N)C(=O)O

Experiments:
RXFP1 = target: T1, RXFP1 (Homo sapiens, UniProt Q9HBX9); assay: OVCAR5 cAMP assay (HTRF), RXFP1 agonist activity; format: cell-based; conditions: OVCAR-5; maximal cAMP relative to H2-relaxin maximum (100%); read-out: EMax, OVCAR 5 cells (cAMP)
T1 construct: OVCAR5 cells expressing endogenous RXFP1; endogenous in cells; host or cells: OVCAR5 cells
T1 sequence (Q9HBX9 1-757): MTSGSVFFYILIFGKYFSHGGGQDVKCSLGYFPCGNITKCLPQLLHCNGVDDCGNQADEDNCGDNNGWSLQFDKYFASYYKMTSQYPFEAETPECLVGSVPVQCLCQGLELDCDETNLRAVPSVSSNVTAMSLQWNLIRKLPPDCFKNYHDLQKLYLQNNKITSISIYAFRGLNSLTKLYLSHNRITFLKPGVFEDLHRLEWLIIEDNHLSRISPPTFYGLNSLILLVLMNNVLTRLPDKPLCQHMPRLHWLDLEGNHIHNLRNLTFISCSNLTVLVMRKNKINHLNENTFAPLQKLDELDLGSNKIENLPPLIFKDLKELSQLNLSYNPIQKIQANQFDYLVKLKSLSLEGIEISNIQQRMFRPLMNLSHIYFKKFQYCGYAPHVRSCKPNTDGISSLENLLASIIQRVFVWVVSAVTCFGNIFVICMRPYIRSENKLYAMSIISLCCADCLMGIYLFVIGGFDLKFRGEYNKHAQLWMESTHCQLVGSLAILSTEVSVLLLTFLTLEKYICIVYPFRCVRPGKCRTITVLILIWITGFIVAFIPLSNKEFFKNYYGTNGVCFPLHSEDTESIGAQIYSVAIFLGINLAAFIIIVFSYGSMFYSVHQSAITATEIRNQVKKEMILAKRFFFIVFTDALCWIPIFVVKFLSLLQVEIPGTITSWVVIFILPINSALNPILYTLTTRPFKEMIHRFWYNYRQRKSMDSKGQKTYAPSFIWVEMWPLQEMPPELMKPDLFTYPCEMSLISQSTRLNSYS
Summary of the method: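 cAMP accumulation readout: after 1 mM IBMX for 40 min, endogenous-RXFP1 OVCAR5 cells got rising peptide concentrations without FCS, 30 min, 37° C, then lysis with HTRF cAMP reagents. Nonlinear regression gave EC50; Emax expressed relative to H2-relaxin maximum, same occasion.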

[1] = Pharmacokinetic (PK) determination after i.v. or s.c. administration to rats; format: in vivo, Sprague Dawley rats; conditions: Rat PK; for C0: extrapolated plasma concentration at t=0, read-out: C0
Summary of the method: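 Non-compartmental analysis of plasma LC/MS data (protein precipitation, BLQ taken as zero) gave T½, C0 (i.v.), Cmax/Tmax (s.c.) and F% from dose-corrected AUCs. Dosing: 3 mg/kg s.c. or 1 mg/kg i.v. in PBS to Sprague Dawley rats, purity- and salt-corrected.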

[2] = Solubility testing of peptides in buffer; format: physicochemical
Protocol: Prior to the testing of solubility of a peptide batch, its purity (HPLC-UV) was determined.
Acetate Buffer 50 mM pH4.5: 0.75 g […], 3H2O (Sigma 57545)+0.35 ml CH3CO2H 100% solution dissolved in Millipore water, adjusted to pH with diluted (1:1) CH3CO2H and diluted to 250 ml with Millipore water.
In a 4 ml Ependorph vial, an accurately weighed sample of compound was diluted in study media to obtain target concentration of 2, 6 or 10 mg/ml of pure compound. The sample vials were shacked (rock 'roll shaker) for ˜19 h. 3004, Aliquots ( ) were filtered through a Millipore “Solvinert” plate (0.45 μm—PTFE hydrophilic).
pH was measured with a micro electrode
Waters Acquity UPLC System with DAD detector
Column: Waters Peptide Column CSH C18 (130 Å; 1.7 μm; 50*2.1 mm)
Column temperature: 60° C.
Full loop (about 5 μL)—overfill factor 5
Weak et Strong wash: H2O/ACN (75/25; V/V); Seal wash: H2O/IsOH (95/5; V/V). Mobile phase:
Solvent A: 0.05% TFA in H2O; Solvent B: 0.035% TFA in CH3CN
Gradient: from 0 to 12 min B=2% to 60%, from 12 to 14 min B=60% to 100%. Column washing 100% B 1 min, column equilibration 2% B 2.5 min.
UV detector: wavelength: 220 nm.

[3] = Stability testing of peptides in rat plasma or blood; format: in vitro ADME; conditions: 5 μM, 37° C.
Protocol: (§1) Prior to the testing of stability in plasma (or blood) of a peptide batch, its purity (HPLC-UV) was determined.
(§2) Rat and Human plasma: anti-coagulant sodium or lithium heparin.
(§3) Rat and Human blood: anti-coagulant sodium or lithium heparin. • Stock solution: • 100 μM solution of study compound in 50 mM Phosphate buffer pH 7.4. • 950 μL plasma (or blood) was pre-incubated for 5 min at 37° C. 50 μL of compound stock solution was added. Final compound concentration=5 μM. Vortex and transfer 1504, plasma (or blood) into an Eppendorf for each time point. The time points […] were carried out in duplicate for each species.
(§4) After incubation 150 μL, plasma (or blood) was extracted with 600 μL, Acetonitrile containing with 1% TFA. Then, vortexed and centrifuged 10 min at 14600 rpm. 200 μL supernatant was dried under N2. The sample was reconstituted in 200 μL of H2O/CH3CN 98/2+0.1% FA+50 ng/ml Labetalol and analyzed using the analytical system used in solubility and stability studies.
(§5) For determination of the amount of the remaining peptide, the peak areas of the target compound at t0 and each time point […] were compared, resulting in “% remaining peptide”, following the equation: % remaining peptide=[(peak area peptide time)×100]/peak area peptide t0. The stability is expressed as “% remaining peptide”.

[4] = Stability testing of peptides in human plasma or blood; format: in vitro ADME; conditions: 5 μM, 37° C.
Protocol: as §1, §2, §3, §4, §5

[5] = Sprague Dawley, plasma, sc, 3 mg/kg s.c.

CCCCCCCCCCCCCCCCCC(=O)N[C@@H](CCC(=O)N[C@@H](CCC(=O)N[C@@H](CCC(=O)NCCCC[C@H](NC(=O)CCOCCOCCOCCOCCOCCOCCOCCOCCOCCOCCOCCOCCNC(=O)[C@H](CCCCN)NC(=O)[C@H](CCCNC(=N)N)NC(=O)C(C)(C)NC(=O)[C@H](CO)NC(=O)[C@H](Cc1c[nH]c2ccccc12)NC(=O)[C@@H](NC(=O)[C@H](CO)NC(=O)[C@H](CCCC)NC(=O)CNC(=O)[C@H](CCC(=O)O)NC(=O)C(C)(C)NC(=O)C(C)(C)NC(=O)[C@@H](NC(=O)[C@H](CCC(N)=O)NC(=O)[C@H](C)NC(=O)[C@H](CCCNC(=N)N)NC(=O)[C@@H](NC(=O)[C@H](CCCCN)NC(=O)[C@H](CCC(=O)O)NC(=O)[C@H](CCCNC(=N)N)NC(=O)CNC(=O)[C@H](CCC(=O)O)NC(=O)[C@H](CC(C)C)NC(C)=O)C(C)C)[C@@H](C)CC)[C@@H](C)O)C(N)=O)C(=O)O)C(=O)O)C(=O)O [compound 30] (Ac-LEGREKVRAQI[Aib][Aib]EG[Nle]STWS[Aib]RK[PEG12]K([γGlu-γGlu-γGlu-Stearoyl])-NH2)
Emax (RXFP1): 89% | C0 ([1]; Sprague Dawley, iv, 1 mg/kg i.v.): 2.2 µM | half-life ([1]; Sprague Dawley, plasma, iv, 1 mg/kg i.v., read-out: T½ (converted)): 4.8 h | Cmax [1, 5]: 0.6 µM | Tmax [1, 5]: 4 h | bioavailability ([1]; Sprague Dawley, plasma, subcutaneous, 3 mg/kg s.c. vs 1 mg/kg i.v., dose-corrected AUC ratio): 105% | solubility ([2]; acetate buffer, pH 4.5, read-out: Solubility Acetate buffer pH 4.5): 7 mg/mL (≈ 1740 µM) | solubility ([2]; phosphate buffer, pH 7.4, read-out: Solubility phosphate buffer pH 7.4): 7 mg/mL (≈ 1740 µM)

CCCCCCCCCCCCCCCC(=O)N[C@@H](CCC(=O)N[C@@H](CCC(=O)N[C@@H](CCC(=O)N[C@@H](CCC(=O)NCCOCCOCC(=O)NCCOCCOCC(=O)NCCOCCOCC(=O)NCCOCCOCC(=O)NCCCC[C@H](NC(=O)[C@H](CCCCNC(C)=O)NC(=O)[C@H](C)NC(=O)[C@H](CCCNC(=N)N)NC(=O)[C@](C)(CCCCN)NC(=O)[C@H](CO)NC(=O)[C@H](Cc1ccccc1)NC(=O)[C@@H](NC(=O)[C@H](CO)NC(=O)[C@H](CCCC)NC(=O)CNC(=O)[C@H](CCC(=O)O)NC(=O)C(C)(C)NC(=O)C(C)(C)NC(=O)[C@@H](NC(=O)[C@H](CCCCNC(C)=O)NC(=O)[C@H](C)NC(=O)[C@H](CCCNC(=N)N)NC(=O)[C@@H](NC(=O)[C@H](CCCCN)NC(=O)[C@H](CCC(=O)O)NC(=O)[C@H](CCCNC(=N)N)NC(=O)CNC(=O)[C@H](CCC(=O)O)NC(=O)[C@H](CC(C)C)NC(C)=O)C(C)C)[C@@H](C)CC)[C@@H](C)O)C(N)=O)C(=O)O)C(=O)O)C(=O)O)C(=O)O [compound 154] (Ac-LEGREKVRAK(Ac)I[Aib][Aib]EG[Nle]STFS[αMeK]RAK(Ac)K([AEEA-AEEA-AEEA-AEEA-γGlu-γGlu-γGlu-γGlu-Palmitoyl])-NH2)
Emax (RXFP1): 92% | Rat stability in blood % remaining 1 h ([3]; rat blood, 1 h): 99** % | Rat stability in blood % remaining 4 h ([3]; rat blood, 4 h): 95** % | Rat plasma stability % remaining T = 0 ([3]; rat plasma or blood, T = 0 (reference)): 100% | T½ ([1]; 1 mg/kg i.v.): 5.00 h | C0 ([1]; 1 mg/kg i.v.): 4.52 µM | Cmax ([1]; 3 mg/kg s.c.): 1.89 µM | Tmax (-h) ([1]; 3 mg/kg s.c.): 8.0 h | F % ([1]; 3 mg/kg s.c. vs 1 mg/kg i.v., dose-corrected AUC ratio): 72% | Solubility Acetate buffer pH 4.5 ([2]; acetate buffer 50 mM pH 4.5, target solubility 10.0 mg/ml): >10 mg/ml**** | Solubility phosphate buffer pH 7.4 ([2]; phosphate buffer 50 mM pH 7.4, target solubility 10.0 mg/ml): >10 mg/ml**** | Human stability in blood % remaining 1 h ([4]; human blood, 1 h): 91** % | Human stability in blood % remaining 4 h ([4]; human blood, 4 h): 96** % | Human Plasma stability % remaining T = 0 ([4]; human plasma or blood, T = 0 (reference)): 100%
